Results taken from US20240392302A1, “METHOD FOR DETECTING AND QUANTIFYING RNA” (FLUORESCENCE DIAGNOSIS (SHANGHAI) BIOTECH COMPANY LTD., priority 2021, published 2024).

Test system: F30-N16-1 RNA aptamer molecules
Assay: Binding of F30-N16-1 RNA aptamer molecules with different fluorescent molecules (fluorescence spectrum, activation multiple)
Format: biochemical
Conditions: for Maximum emission peak (nm) / Maximum excitation peak (nm): complex with F30-N16-1; for Activation Multiple: fluorophore with F30-N16-1
Protocol: Nucleic acid aptamer molecules of N16 or N16 mutants were prepared by using the commonly-used experimental method (I), 2.5 μM of nucleic acid aptamer molecules and 0.5 μM of fluorophore molecules were incubated in a detection buffer (40 mM of HEPES, pH 7.4, 125 mM of KCl, 5 mM of MgCl2, 5% DMSO), and the maximum excitation peak and the maximum emission peak of the fluorescence of the nucleic acid aptamer-fluorophore molecular complex were detected with Synergy Neo2 multifunctional enzyme-labeler. Synergy Neo2 multifunctional enzyme-labeler was used again to detect fluorescence intensity of the nucleic acid aptamer-fluorophore molecular complex under its maximum excitation and emission conditions, the control sample ([…] of fluorophore molecules without nucleic acid aptamer) was also measured under the same conditions, and the ratio of fluorescence intensity was calculated. For example, as for fluorescence of the complex formed by 2.5 μM of N16-1 nucleic acid aptamer and 0.5 μM of I-5-14 fluorophore molecules, the maximum excitation peak is 512 nm and the maximum emission peak is 574 nm. It was detected by the Synergy Neo2 multifunctional enzyme-labeler that the fluorescence intensity of the complex at an excitation condition of 512±10 nm and an emission condition of 574 nm±10 nm was 49,088, while the fluorescence intensity of the control (0.5 μM of I-5-14 fluorophore molecules) under the same detection conditions was 399, so the activation multiple of N16-1 nucleic acid aptamer to I-5-14 fluorophore molecules was 123.
F30-N16-1 RNA aptamer molecules were prepared by using the commonly-used experimental method (I), and were used for detecting basic properties, including fluorescence spectrum and fluorescence activation multiple, of the binding of I-5-14 analogues with N16.

Compound	Maximum emission peak (nm)	Maximum excitation peak (nm)	Activation Multiple
CN(CCO)c1ccc(/C=C2\OC(=O)NC2=O)s1 [I-5-1]	500	460	14
CN(CCNS(C)(=O)=O)c1ccc(/C=C2\SC(=O)NC2=S)s1 [I-5-3]	580	550	14
CN(CCO)c1ccc(/C=C2\SC(=S)NC2=S)s1 [I-5-4]	638	625	47
CCN1C(=O)S/C(=C\c2ccc(N(C)CCO)s2)C1=O [I-5-5]	518	487	11
O=C1NC(=S)N/C1=C\c1ccc(N(CCO)CCO)s1 [I-5-6]	550	536	23
CN1C(=O)O/C(=C\c2ccc(N(C)C)s2)C1=O [I-5-7]	504	465	24
CN(C)c1ccc(/C=C2\SC(=O)NC2=S)s1 [I-5-8]	582	554	15
CN(C)c1ccc(/C=C2\SC(=S)N(N)C2=O)s1 [I-5-9]	578	552	17
CN(C)c1ccc(/C=C2\SC(=S)NC2=S)s1 [I-5-10]	642	626	11
CN(C)c1ccc(/C=C2\SC(=O)NC2=O)s1 [I-5-11]	524	493	9
CN(C)c1ccc(/C=C2\NC(=S)NC2=O)s1 [I-5-12]	555	535	11
CCN1C(=O)O/C(=C\c2ccc(N(C)CCO)cc2)C1=O [I-5-13]	492	393	8
CN(CCO)c1ccc(/C=C2\SC(=O)NC2=S)cc1 [I-5-15]	598	567	31
CN(CCO)c1ccc(/C=C2\SC(=S)N(N)C2=S)cc1 [I-5-16]	648	615	11
CN(CCO)c1ccc(/C=C2\SC(=O)NC2=O)cc1 [I-5-17]	506	445	105
CN1C(=O)/C(=C/c2ccc(N(C)CCO)cc2)NC1=S [I-5-18]	545	473	57
CN(C)c1ccc(/C=C2\OC(=O)N(N)C2=O)cc1 [I-5-19]	499	397	18

Compound	Maximum emission peak (nm)	Maximum excitation peak (nm)	Activation Multiple
CN(C)c1ccc(/C=C2\SC(=S)N(CCC(=O)O)C2=O)cc1 [I-5-20]	565	493	22
CN(C)c1ccc(/C=C2\SC(=O)NC2=S)cc1 [I-5-21]	605	569	24
CN(C)c1ccc(/C=C2\SC(=S)NC2=S)cc1 [I-5-22]	657	613	126
CN(C)c1ccc(/C=C2\SC(=O)NC2=O)cc1 [I-5-23]	515	433	156
CN(C)c1ccc(/C=C2\NC(=S)NC2=O)cc1 [I-5-24]	543	473	7
CN(CCO)c1ccc(/C=C2\OC(=O)N(CCC(=O)O)C2=O)c(F)c1 [I-5-25]	502	403	6
CN(CCOC(=O)CCOCCO)c1ccc(/C=C2\SC(=S)NC2=O)c(Br)c1 [I-5-26]	567	497	21
Cc1cc(N(C)CCNC(=O)CCOCCOCCO)ccc1/C=C1\SC(=O)NC1=S [I-5-27]	603	565	11
CN1CCc2cc(/C=C3\SC(=O)NC3=O)ccc21 [I-5-29]	525	453	14
CN1CCc2cc(/C=C3\NC(=S)NC3=O)c(Cl)cc21 [I-5-30]	562	497	11
CN1C(=O)/C(=C/c2ccc3c(c2)SCCN3C)SC1=S [I-5-31]	610	503	125
CN1C(=O)S/C(=C\c2ccc3c(c2)SCCN3C)C1=S [I-5-32]	625	519	15
CN1CCSc2cc(/C=C3\SC(=O)NC3=O)ccc21 [I-5-33]	553	442	154
CN1CCSc2cc(/C=C3\SC(=S)NC3=S)ccc21 [I-5-34]	659	547	11
CCN1C(=O)/C(=C/c2ccc3c(c2)SCCN3C)NC1=S [I-5-35]	585	487	10
CN1CCOc2cc(/C=C3\SC(=O)NC3=S)ccc21 [I-5-36]	625	517	9
CN1CCOc2cc(/C=C3\SC(=S)NC3=O)ccc21 [I-5-37]	603	497	256

Other lines, results leading:

Maximum emission peak (nm)	Maximum excitation peak (nm)	Activation Multiple	Compound
647	545	7	CN1CCOc2cc(/C=C3\SC(=S)N(CCC(=O)O)C3=S)ccc21 [I-5-38]
509	429	14	CN1CCCc2cc(/C=C3\SC(=O)NC3=O)ccc21 [I-5-39]
548	473	8	CN1C(=O)/C(=C/c2ccc3c(c2)CCCN3C)NC1=S [I-5-40]
612	517	85	CC1=CC(C)(C)N(C)c2ccc(/C=C3\SC(=S)NC3=O)cc21 [I-5-41]
627	527	11	CC1=CC(C)(C)N(C)c2ccc(/C=C3\SC(=O)NC3=S)cc21 [I-5-42]
665	572	17	CC1=CC(C)(C)N(C)c2ccc(/C=C3\SC(=S)NC3=S)cc21 [I-5-43]
549	459	21	CCN1C(=O)S/C(=C\c2ccc3c(c2)C(C)=CC(C)(C)N3C)C1=O [I-5-44]
595	497	11	CC1=CC(C)(C)N(C)c2ccc(/C=C3\NC(=S)NC3=O)cc21 [I-5-45]
633	542	7	CN1C(=O)S/C(=C\c2cc3c4c(c2)CCCN4CCC3)C1=S [I-5-46]
607	529	245	O=C1NC(=S)S/C1=C\c1cc2c3c(c1)CCCN3CCC2 [I-5-47]
675	579	6	S=C1NC(=S)/C(=C/c2cc3c4c(c2)CCCN4CCC3)S1 [I-5-48]
539	469	1025	O=C1NC(=O)/C(=C/c2cc3c4c(c2)CCCN4CCC3)S1 [I-5-49]
597	512	7	O=C1NC(=S)N/C1=C\c1cc2c3c(c1)CCCN3CCC2 [I-5-50]
654	582	1125	CN(C)c1cc2sc(/C=C3\SC(=S)NC3=O)cc2s1 [I-5-51]
725	686	7	CN(C)c1cc2sc(/C=C3\SC(=S)NC3=S)cc2s1 [I-5-52]
593	518	1281	CN(C)c1cc2sc(/C=C3\SC(=O)NC3=O)cc2s1 [I-5-53]
